From PubChem BioAssay (NCI)
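Method: 48-hour compound exposure of cells in 96-well plates, five concentrations, linear interpolation of endpoints. GI50 marks 50% less growth. TGI is the concentration that stops growth completely.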

Tests used:
Assay in all cases: DTP human tumour cell line panel, 48 h
[1] = tested on: SNB-75 CNS
[2] = tested on: KM12 colon
[3] = tested on: EKVX NSCLC
[4] = tested on: SK-MEL-28 melanoma
[5] = tested on: HCC-2998 colon
[6] = tested on: MOLT-4 leukemia
[7] = tested on: NCI-H460 lung
[8] = tested on: IGROV1 ovarian
[9] = tested on: OVCAR-3 ovarian
[10] = tested on: OVCAR-8 ovarian

Structure (SMILES): O=C(Cl)c1cc([N+](=O)[O-])cc([N+](=O)[O-])c1
- TGI [1]: > 100 µM
- TGI [2]: > 100 µM
- TGI [3]: > 100 µM
- TGI [4]: > 100 µM
- TGI [5]: > 100 µM
- TGI [6]: > 100 µM
- TGI [7]: > 100 µM
- TGI [8]: > 100 µM

Structure (SMILES): CN(C)CCCN1c2ccc3ccccc3c2Sc2cccc(Cl)c21
- TGI [1]: 12 µM
- TGI [2]: 4.28 µM
- TGI [3]: 13.5 µM
- TGI [4]: 4.3 µM
- TGI [5]: 2.96 µM
- TGI [6]: 4.75 µM
- TGI [7]: 3.25 µM
- TGI [8]: 5.85 µM
- TGI [9]: 10.6 µM
- TGI [10]: 18 µM

Structure (SMILES): CC(C)OP(=O)(OC(C)C)c1ncn(-c2ccc([N+](=O)[O-])cc2)n1
- TGI [1]: > 100 µM
- TGI [2]: > 100 µM
- TGI [3]: > 100 µM
- TGI [4]: > 100 µM
- TGI [5]: > 100 µM
- TGI [6]: > 100 µM
- TGI [7]: > 100 µM
- TGI [8]: > 100 µM
- TGI [9]: > 100 µM
- TGI [10]: > 100 µM

Structure (SMILES): COc1nc(NC2OCC(OC(C)=O)C(OC(C)=O)C2OC(C)=O)c(N=C(C)C(C)=O)c(=O)n1C (stereo not given)
- TGI [1]: > 100 µM
- TGI [2]: > 100 µM
- TGI [3]: > 100 µM
- TGI [4]: > 100 µM
- TGI [6]: > 100 µM
- TGI [7]: > 100 µM
- TGI [8]: > 100 µM
- TGI [10]: > 100 µM

Structure (SMILES): Nc1cc(N)c2nc(-c3ccccc3)c(Sc3ccc(F)cc3)nc2c1
- GI50 [1]: 21.1 µM
- TGI [1]: 47.8 µM
- GI50 [2]: 20.8 µM
- TGI [2]: 48.5 µM
- GI50 [3]: 20.5 µM
- TGI [3]: 41.2 µM
- GI50 [4]: 23.4 µM
- TGI [4]: 53.4 µM
- GI50 [6]: > 100 µM
- TGI [6]: > 100 µM
- GI50 [7]: 21.7 µM
- TGI [7]: 65.8 µM
- GI50 [8]: 25 µM
- TGI [8]: > 100 µM
- GI50 [9]: 16.3 µM
- TGI [9]: 33.6 µM
- GI50 [10]: 16.7 µM
- TGI [10]: 34.9 µM

Structure (SMILES): COc1cccc(C(=O)C(O)c2cccc(OC)c2OC)c1OC (stereo not given)
- TGI [1]: > 100 µM
- TGI [2]: > 100 µM
- TGI [3]: > 100 µM
- TGI [4]: > 100 µM
- TGI [5]: > 100 µM
- TGI [6]: > 100 µM
- TGI [7]: > 100 µM
- TGI [8]: > 100 µM
- TGI [9]: > 100 µM
- TGI [10]: > 100 µM

Structure (SMILES): O=C(CCc1nnc2s/c(=C\c3ccc(Cl)cc3Cl)c(=O)n12)Nc1cc(Cl)c(Cl)cc1Cl
- TGI [1]: > 100 µM
- GI50 [2]: > 100 µM
- TGI [2]: > 100 µM
- GI50 [3]: > 100 µM
- TGI [3]: > 100 µM
- GI50 [4]: > 100 µM
- TGI [4]: > 100 µM
- TGI [5]: > 100 µM
- GI50 [6]: > 100 µM
- TGI [6]: > 100 µM
- GI50 [8]: > 100 µM
- TGI [8]: > 100 µM
- GI50 [9]: > 100 µM
- TGI [9]: > 100 µM
- GI50 [10]: > 100 µM
- TGI [10]: > 100 µM

Structure (SMILES): CN1C(=N\S(=O)(=O)c2ccc(Cl)cc2)/C(=N/N=P(c2ccccc2)(c2ccccc2)c2ccccc2)c2ccccc21
- TGI [1]: > 100 µM
- TGI [2]: > 100 µM
- TGI [3]: > 100 µM
- TGI [4]: > 100 µM
- TGI [5]: > 100 µM
- TGI [6]: > 100 µM
- TGI [7]: > 100 µM
- TGI [8]: > 100 µM
- TGI [9]: > 100 µM
- TGI [10]: > 100 µM
